Laboratory results taken from ChEMBL document CHEMBL1147194, “Synthesis and evaluation of galactofuranosyl N,N-dialkyl sulfenamides and sulfonamides as antimycobacterial agents” (2007).
Converted amounts (≈) assume the structure as drawn.

Tested on: Mycolicibacterium smegmatis
Test: Antimycobacterial activity against Mycobacterium smegmatis ATCC 14468 after 72 hrs by broth microdilution assay
Assay type: functional
Details: ATCC 14468, 72 h

MIC | SMILES
4 µg/mL (≈ 9.18 µM) | CCCCCCCCN(CCCCCCCC)S[C@@H]1O[C@@H]([C@H](O)CO)[C@H](O)[C@H]1O
1 µg/mL (≈ 2.03 µM) | CCCCCCCCCCN(CCCCCCCCCC)S[C@@H]1O[C@@H]([C@H](O)CO)[C@H](O)[C@H]1O
> 32 µg/mL | CCCCCCCCCCN(CCCCCCCCCC)S(=O)(=O)[C@@H]1O[C@@H]([C@H](O)CO)[C@H](O)[C@H]1O

The remaining lines, values behind:

SMILES | MIC
CCCCCCCCN(CCCCCCCC)S(=O)(=O)[C@@H]1O[C@@H]([C@H](O)CO)[C@H](O)[C@H]1O | 2 µg/mL (≈ 4.28 µM)
O=S(=O)([C@@H]1O[C@@H]([C@H](O)CO)[C@H](O)[C@H]1O)N(Cc1ccccc1)Cc1ccccc1 | > 64 µg/mL
CCCCCCN(CCCCCC)S[C@@H]1O[C@@H]([C@H](O)CO)[C@H](O)[C@H]1O | > 64 µg/mL
CCCCCCN(CCCCCC)S(=O)(=O)[C@@H]1O[C@@H]([C@H](O)CO)[C@H](O)[C@H]1O | 64 µg/mL (≈ 156 µM)
OC[C@@H](O)[C@@H]1O[C@@H](SN(Cc2ccccc2)Cc2ccccc2)[C@H](O)[C@H]1O | 16 µg/mL (≈ 40.9 µM)
